Data reported in patent publication US8779141B2, “Viral inhibitors” (Gilead Sciences, Inc., priority 2002, dated 2014).
Values after ≈ are worked out from the molar mass of the structure shown. Where two headings read alike, the source gives them in different places.

Tests used:
BVDV-1 (strain PE515) = experiment: Anti-BVDV assay, virus-induced cytopathic effect in MDBK cells (MTS); assay type: cell-based, Bovine Viral Diarrhea Virus
Description: (§1) Madin-Darbey Bovine Kidney (MDBK) cells were maintained in Dulbecco's modified Eagle medium (DMEM) supplemented with BVDV-free 5% fetal calf serum (DMEME-FCS) at 37° C. in a humidified, 5% CO2 atmosphere. BVDV-1 (strain PE515) was used to assess the antiviral activity in MDBK cells. Vero cells were maintained in the same way as MDBK cells. Vero cells were infected with Coxsackie B3 virus (strain Nancy).
Ninety-six-well cell culture plates were seeded with MDBK cells in DMEM-FCS so that cells reached 24 hr later confluency. Then medium was removed and serial 5-fold dilutions of the test compounds were added in a total volume of 100 ul, after which the virus inoculum (100 ul) was added to each well. […] Uninfected cells and cells receiving virus without compound were included in each assay plate. After 5 days, medium was removed and 90 μl of DMEM-FCS and 10 ul of MTS/PMS solution (Promega) was added to each well. Following a 2 hr incubation period at 37° C. the optical density of the wells was read at 498 nm in a microplate reader.

Vero cells = experiment: Metabolism of confluent Vero cells (MTS); assay type: cell-based; details: Table 13; reduction of metabolism of confluent Vero cells by 50%, MTS method
Description: as §1
(§2) Ninety-six-well cell culture plates were seeded with Vero cells in DMEM medium containing 10 fetal calf serum (FCS) so that cells reached confluency 24-48 hr later. Medium was then removed and serial 5-fold dilutions of the test compounds were added in a total volume of 100 ul, after which the virus inoculum (100 μl) was added to each well. […] Uninfected cells and cells receiving virus without compound were included in each asay plate. After 5 days, the medium was removed and 90 μl of DMEM-FCS and 10 μl of MTS/PMS solution (Promega) was added to each well. Following a 2 hr incubation period at 37° C., the optical density of the wells was read at 498 nm in a microplate reader. The 50% effective concentration (EC50) value was defined as the concentration of compound that protects 50% of the cell monolayer from virus-induced cytopathic effect.

[1] = Cytostatic effect on exponentially growing MDBK cells (MTS); assay type: cell-based, Bovine; details: bovine; Table 9; reduction of growth of exponentially growing MDBK cells by 50%; mean of 2-5 determinations
Description: (§3) Madin-Darbey Bovine Kidney (MDBK) cells were maintained in Dulbecco's modified Eagle medium (DMEM) supplemented with BVDV-free 5% fetal calf serum ([…]) at 37° C. in a humidified, 5% CO2 atmosphere. […] Vero cells were maintained in the same way as MDBK cells. […] The effect of the drugs on exponentially growing MDBK cells was assessed as follows. Cells were seeded at a density of 5000 cell/well in 96 well plates in MEM medium (Gibco) supplemented with 10% fetal calf serum, 2 mM L-glutamine (Life Technologies) and bicarbonate (Life Technologies). […] Cultures were then again further incubated for 3 days after which the effect on cell growth was quantified by means of the MTS method (Promega).

[2] = system: Coxsackie B3 virus (strain Nancy); experiment: Anti-coxsackie virus assay, cytopathic effect in Vero cells (MTS); assay type: cell-based; details: Enterovirus B, Table 13, reduction of virus (CBV-3 Nancy strain)-induced cytopathic effect in Vero cells by 50%
Description: as §1, §2

[3] = Proliferation of exponentially growing Huh-5-2 cells (MTS); assay type: cell-based; details: human, exponentially growing Huh-5-2 cells (HCV replicon cell line); Table 11; inhibition of proliferation of exponentially growing Huh-5-2 cells by 50%
Description: (§4) Cells were seeded at a density of 7000 cells per well in 96 well View Plate™ (Packard) in medium containing the same components as described above, except for G418. Cells were allowed to adhere and proliferate for 24 hr. At that time, culture medium was removed and serial dilutions of the test compounds were added in culture medium lacking G418. Interferon alfa 2a (500 IU) was included as a positive control. Plates were further incubated at 37° C. and 5% CO2 for 72 hours. Replication of the HCV replicon in Huh-5 cells results in luciferase activity in the cells. Luciferase activity is measured by adding 50 μl of 1× Glo-lysis buffer (Promega) for 15 minutes followed by 50 ul of the Steady-Glo Luciferase assay reagent (Promega). Luciferase activity is measured with a luminometer and the signal in each individual well is expressed as a percentage of the untreated cultures. […] Instead the density of the culture is measured by means of the MTS method (Promega).

[4] = system: HCV replicon in Huh-5-2 cells; experiment: Anti-HCV replicon assay, luciferase activity in Huh-5-2 cells; assay type: cell-based; details: Hepatitis C virus, Table 11, inhibition of luciferase activity in the replicon system by 50%
Description: as §4

MDBK cells = experiment: Cytostatic effect on exponentially growing MDBK cells (MTS); assay type: cell-based, Bovine; details: for MTC: Table 10, mean toxic concentration, reduces growth of exponentially growing MDBK cells by 50%
Description: as §3

[5] = Bovine viral diarrhea virus isolates and strains, Table 9, reduction of virus induced cytopathic effect in MDBK cells by 50%, BVDV strain PE515, mean of 2-5 determinations, read-out: EC50
[6] = Bovine viral diarrhea virus isolates and strains, Table 10, reduction of virus induced cytopathic effect in MDBK cells by 50%, read-out: EC50

Structure (SMILES) | EC50 (BVDV-1 (strain PE515); [5]) | TC50 (Vero cells) | CC50 at 3 days [1] | EC50 [2] | also measured
Fc1cccc(F)c1-c1nc2ccn(Cc3ccc(Cl)c(Cl)c3)cc-2n1 [GPC-10, 5-[(3,4-Dichlorophenyl)methyl]-2-(2,6-difluorophenyl)-5H-imidazo[4,5-c]pyridine] | 0.064 µg/mL (≈ 0.164 µM) | 59 µg/mL (≈ 151 µM) | 4 µg/mL (≈ 10.3 µM) | 1.81 µg/mL (≈ 4.64 µM) | 
Fc1cccc(-c2nc3ccn(Cc4ccc(F)cc4F)cc-3n2)c1 [GPC-11, 5-[(2,4-Difluorophenyl)methyl]-2-(3-fluorophenyl)-5H-imidazo[4,5-c]pyridine] | 0.56 µg/mL (≈ 1.65 µM) | >100 µg/mL | > 100 µg/mL | 4.76 µg/mL (≈ 14 µM) | 
Fc1ccc(Cn2ccc3nc(-c4c(F)ccc(F)c4F)nc-3c2)c(F)c1 [GPC-12, 5-[(2,4-Difluorophenyl)methyl]-2-(2,3,6-trifluorophenyl)-5H-imidazo[4,5-c]pyridine] |  | >100 µg/mL |  | 3.6 µg/mL (≈ 9.59 µM) | 
CC(C)(C)c1ccc(Cn2ccc3nc(-c4ccccc4)nc-3c2)cc1 [GPJN-16, 5-[[4-(1,1-Dimethylethyl)phenyl]methyl]-2-phenyl-5H-imidazo[4,5-c]pyridine] | 0.246 µg/mL (≈ 0.72 µM) |  | 8.1 µg/mL (≈ 23.7 µM) |  | CC50 at 72 hours [3]: 3 µg/mL (≈ 8.79 µM); EC50 [4]: 1 µg/mL (≈ 2.93 µM)
c1ccc(-c2ccc(Cn3ccc4nc(-c5ccccc5)nc-4c3)cc2)cc1 [GPJN-32, 5-([1,1′-Biphenyl]-4-ylmethyl)-2-phenyl-5H-imidazo[4,5-c]pyridine] | 0.027 µg/mL (≈ 0.0747 µM) | 69 µg/mL (≈ 191 µM) | 20 µg/mL (≈ 55.3 µM) | 6.5 µg/mL (≈ 18 µM) | 
c1ccc(-c2nc3ccn(Cc4cccc5ccccc45)cc-3n2)cc1 [GPJN-36, 5-(1-Naphthalenylmethyl)-2-phenyl-5H-imidazo[4,5-c]pyridine] |  |  |  |  | EC50 (BVDV-1 (strain PE515); Table 9, reduction of virus induced cytopathic effect in MDBK cells by 50%, BVDV strain PE515, mean of 2-5 determinations): 0.019 µg/mL (≈ 0.0566 µM); CC50 (MDBK cells; Table 9, reduction of growth of exponentially growing MDBK cells by 50%, mean of 2-5 determinations): 24 µg/mL (≈ 71.6 µM)
Fc1ccc(Cn2ccc3nc(-c4c(F)cccc4F)nc-3c2)c(F)c1 [GPJN-40, 2-(2,6-Difluorophenyl)-5-[(2,4-difluorophenyl)methyl]-5H-imidazo[4,5-c]pyridine] | 0.25 µg/mL (≈ 0.7 µM) | >100 µg/mL | > 100 µg/mL | 8.95 µg/mL (≈ 25 µM) | 
Fc1cccc(-c2nc3ccn(Cc4ccc(Br)cc4)cc-3n2)c1 [GPJN-50, 5-[(4-Bromophenyl)methyl]-2-(3-fluorophenyl)-5H-imidazo[4,5-c]pyridine] | 0.021 µg/mL (≈ 0.0549 µM) | >100 µg/mL | > 100 µg/mL | 8.47 µg/mL (≈ 22.2 µM) | 
Cc1cccc(-c2nc3ccn(Cc4ccc(Br)cc4)cc-3n2)c1 [GPJN-60, 5-[(4-Bromophenyl)methyl]-2-(3-methylphenyl)-5H-imidazo[4,5-c]pyridine] |  | >100 µg/mL | > 77 µg/mL | 6.1 µg/mL (≈ 16.1 µM) | EC50 (BVDV-1 (strain PE515); Bovine viral diarrhea virus isolates and strains, MDBK): 0.015 µg/mL (≈ 0.0397 µM)
Brc1ccc(Cn2ccc3nc(-c4cccc5ccccc45)nc-3c2)cc1 [GPJN-62, 5-[(4-Bromophenyl)methyl]-2-(1-naphthalenyl)-5H-imidazo[4,5-c]pyridine] | 0.12 µg/mL (≈ 0.29 µM) |  | 9.4 µg/mL (≈ 22.7 µM) |  | CC50 at 72 hours [3]: 6 µg/mL (≈ 14.5 µM); EC50 [4]: < 0.62 µg/mL
COc1cccc(-c2nc3ccn(Cc4ccc(Br)cc4)cc-3n2)c1 [GPJN-64, 5-[(4-Bromophenyl)methyl]-2-(3-methoxyphenyl)-5H-imidazo[4,5-c]pyridine] | 0.026 µg/mL (≈ 0.0659 µM) | >42 µg/mL | > 100 µg/mL | 12 µg/mL (≈ 30.4 µM) | 
Ic1ccc(Cn2ccc3nc(-c4ccccc4)nc-3c2)cc1 [GPJN-68, 5-[(4-Iodophenyl)methyl]-2-phenyl-5H-imidazo[4,5-c]pyridine] | 0.026 µg/mL (≈ 0.0632 µM) |  | 17 µg/mL (≈ 41.3 µM) |  | 
c1ccc(OCCn2ccc3nc(-c4ccccc4)nc-3c2)cc1 [GPJN-73, 5-(2-Phenoxyethyl)-2-phenyl-5H-imidazo[4,5-c]pyridine] | 0.017 µg/mL (≈ 0.0539 µM) |  | > 100 µg/mL |  | 
C(=Cc1ccccc1)Cn1ccc2nc(-c3ccccc3)nc-2c1 [GPJN-75, 2-Phenyl-5-(3-phenyl-2-propenyl)-5H-imidazo[4,5-c]pyridine] | 0.018 µg/mL (≈ 0.0578 µM) |  | 31.7 µg/mL (≈ 102 µM) |  | 
Brc1cccc(-c2nc3ccn(Cc4ccc(I)cc4)cc-3n2)c1 [GPJN-79, 2-(3-Bromophenyl)-5-[(4-iodophenyl)methyl]-5H-imidazo[4,5-c]pyridine] | 0.083 µg/mL (≈ 0.169 µM) |  | > 100 µg/mL |  | 
Clc1ccc(Cn2ccc3nc(-c4cccc(Br)c4)nc-3c2)cc1 [GPJN-80, 2-(3-Bromophenyl)-5-[(4-chlorophenyl)methyl]-5H-imidazo[4,5-c]pyridine] | 0.18 µg/mL (≈ 0.451 µM) |  | > 100 µg/mL |  | 
Brc1ccc(Cn2ccc3nc(CSc4ccccc4)nc-3c2)cc1 [GPJN-83, 5-[(4-Bromophenyl)methyl]-2-[(phenylthio)methyl]-5H-imidazo[4,5-c]pyridine] |  |  |  |  | CC50 at 72 hours [3]: 8 µg/mL (≈ 19.5 µM); EC50 [4]: < 0.62 µg/mL
FC(F)(F)c1cccc(-c2nc3ccn(Cc4ccc(Br)cc4)cc-3n2)c1 [GPJN-87, 5-[(4-Bromophenyl)methyl]-2-[3-(trifluoromethyl)phenyl]-5H-imidazo[4,5-c]pyridine] |  |  |  |  | CC50 at 72 hours [3]: 20 µg/mL (≈ 46.3 µM); EC50 [4]: < 0.62 µg/mL
Clc1c2nc(-c3ccccc3)nc-2ccn1Cc1ccc(Br)cc1 [GPJN-96, 5-[(4-Bromophenyl)methyl]-4-chloro-2-phenyl-5H-imidazo[4,5-c]pyridine] |  |  |  |  | CC50 at 72 hours [3]: 4 µg/mL (≈ 10 µM); EC50 [4]: 1 µg/mL (≈ 2.51 µM)
Brc1cccc(-c2nc3ccn(CCOc4ccccc4)cc-3n2)c1 [GPJN-100, 2-(3-Bromophenyl)-5-(2-phenoxyethyl)-5H-imidazo[4,5-c]pyridine] |  |  |  |  | EC50 (BVDV-1 (strain PE515); [6]): 0.088 µg/mL (≈ 0.223 µM); MTC (MDBK cells): 20 µg/mL
Clc1cn(Cc2ccc(Br)cc2)cc2nc(-c3ccccc3)nc1-2 [GPJN-103, 5-[(4-Bromophenyl)methyl]-7-chloro-2-phenyl-5H-imidazo[4,5-c]pyridine] |  |  |  |  | EC50 (BVDV-1 (strain PE515); [6]): 0.061 µg/mL (≈ 0.153 µM); MTC (MDBK cells): 20 µg/mL
Cc1cn(Cc2ccc(Br)cc2)cc2nc(-c3ccccc3)nc1-2 [GPJN-104, 5-[(4-Bromophenyl)methyl]-7-methyl-2-phenyl-5H-imidazo[4,5-c]pyridine] |  |  |  |  | EC50 (BVDV-1 (strain PE515); [6]): 0.27 µg/mL (≈ 0.714 µM); MTC (MDBK cells): 20 µg/mL
c1ccc(-c2ccc(Cn3ccc4nc(-c5cccc6ccccc56)nc-4c3)cc2)cc1 [GPJN-115, 5-([1,1′-Biphenyl]-4-ylmethyl)-2-(1-naphthalenyl)-5H-imidazo[4,5-c]pyridine] |  |  |  |  | EC50 (BVDV-1 (strain PE515); [6]): 0.24 µg/mL (≈ 0.583 µM); MTC (MDBK cells): 4 µg/mL
